Source: patent US8507535B2 (Hoffmann-La Roche Inc., priority 2010, dated 2013)

Legend:
[1] = phase II trial, cited from earlier work
human NK3 receptor = human NK3 receptor (Homo sapiens (Human), UniProt P29371); test: [3H]SR142801 competition binding assay; settings: membranes from HEK293 cells transiently expressing recombinant human NK3 receptor; [3H]SR142801 radioligand; second half of table, head prints nM; read-out: Ki (nM) hNK3
Description: [^3H]SR142801 Competition Binding Assay
hNK3 receptor binding experiment were performed using [^3H]SR142801 (Catalog No. TRK1035, specific activity: 74.0 Ci/mmol, Amersham, GE Healthcare UK limited, Buckinghamshire, UK) and membrane isolated from HEK293 cells transiently expressing recombinant human NK3 receptor. After thawing, the membrane homogenates were centrifuged at 48,000×g for 10 min at 4° C., the pellets were resuspended in the 50 mM Tris-HCl, 4 mM MnCl2, 1 μM phosphoramidon, 0.1% BSA binding buffer at pH 7.4 to a final assay concentration of 5 μg protein/well. For inhibition experiments, membranes were incubated with [^3H]SR142801 at a concentration equal to KD value of radioligand and 10 concentrations of the inhibitory compound (0.0003-10 μM) (in a total reaction volume of 500 μl) for 75 min at room temperature (RT). At the end of the incubation, membranes were filtered onto unitfilter (96-well white microplate with bonded GF/C filter preincubated 1 h in 0.3% PEI+0.3% BSA, Packard BioScience, Meriden, Conn.) with a Filtermate 196 harvester (Packard BioScience) and washed 4 times with ice-cold 50 mM Tris-HCl, pH 7.4 buffer. Nonspecific binding was measured in the presence of 10 μM SB222200 for both radioligands. The radioactivity on the filter was counted (5 min) on a Packard Top-count microplate scintillation counter with quenching correction after addition of 45 μl of microscint 40 (Can berra Packard S. A., Zurich, Switzerland) and shaking for 1 h. Inhibition curves were fitted according to the Hill equation: y=100/(1+(x/IC50)^nH), where nH=slope factor using Excel-fit 4 software (Microsoft). IC50 values were derived from the inhibition curve and the affinity constant (Ki) values were calculated using the Cheng-Prussoff equation Ki=IC50/(1+[L]/KD) where [L] is the concentration of radioligand and KD is its dissociation constant at the receptor, derived from the saturation isotherm. All experiments were performed in duplicate and the mean±standard error (SEM) of the individual Ki values was calculated.

Sequence of human NK3 receptor (P29371 whole entry): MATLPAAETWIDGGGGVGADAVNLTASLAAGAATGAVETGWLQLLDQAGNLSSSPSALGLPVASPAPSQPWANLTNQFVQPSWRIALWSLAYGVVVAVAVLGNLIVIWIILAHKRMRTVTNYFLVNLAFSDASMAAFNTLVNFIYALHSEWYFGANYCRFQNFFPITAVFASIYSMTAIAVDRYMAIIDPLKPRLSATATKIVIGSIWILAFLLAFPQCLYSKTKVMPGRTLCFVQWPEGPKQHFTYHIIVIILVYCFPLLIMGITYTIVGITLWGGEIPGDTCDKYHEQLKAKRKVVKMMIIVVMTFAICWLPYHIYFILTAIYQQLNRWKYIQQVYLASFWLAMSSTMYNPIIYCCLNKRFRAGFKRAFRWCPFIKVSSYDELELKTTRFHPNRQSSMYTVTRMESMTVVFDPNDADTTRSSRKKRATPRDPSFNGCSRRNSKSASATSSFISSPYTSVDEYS

| SMILES | activity on positive symptoms of schizophrenia ([1]; altered behaviour, delusion, hallucinations, extreme emotions, excited motor activity, incoherent speech) | activity on negative symptoms of schizophrenia ([1]; depression, anhedonia, social isolation, memory and attention deficits) | Ki (human NK3 receptor) |
| --- | --- | --- | --- |
| CC(=O)N(C)C1(c2ccccc2)CCN(CCC[C@]2(c3ccc(Cl)c(Cl)c3)CCCN(C(=O)c3ccccc3)C2)CC1 [SR 142,801, Osanetant] | active on positive symptoms of schizophrenia | inactive in the treatment of negative symptoms | – |
| C[C@]1(COc2ccc(Cl)cn2)CN(C(=O)c2ccc(N3CCCCC3=O)cc2)C[C@@H]1c1ccc(Cl)cc1 (racemic) [Example 27, 1-{4-[(3RS,4RS)-4-(4-Chloro-phenyl)-3-(5-chloro-pyridin-2-yloxymethyl)-3-methyl-pyrrolidine-1-carbonyl]-phenyl}-piperidin-2-one] | – | – | 93.1 nM |
